In one data set the test system is MCP-1. Briefly: ELISA of MCP-1 production in LPS-stimulated THP-1 cells. It is filed as cell-based, human. The conditions noted are these: for Effect on MCP-1 level: 10 µM, compared to LPS (+)-stimulated group, THP-1 cells; for IC50: Homo sapiens, LPS-stimulated (10 ng/mL) THP-1 cells, 1, 5, 10, 20 µM, 18 h; for MCP-1 SI (selectivity index, CC50/IC50): THP-1 CC50 / MCP-1 IC50. As to the method:
The logarithmic growth phase of THP-1 cells was achieved by seeding in 96-well plates at a density of 5 × 10^4 cells/well and differentiated for 24 h in the presence of PMA (0.5 μM solution in medium). After 24 h of incubation, the culture medium was removed from the 96-well plate and the cells were washed with PBS. […] The cells were pretreated with 17 limonoids at the corresponding concentration for 1 h, followed by the addition of LPS (10 ng/mL) and then incubation at 37 °C for 18 h. Finally, 50 μL of each culture supernatant solution was taken to determine the concentrations of IL-6, MCP-1, and IL-1β using the corresponding commercially available human ELISA kits following the manufacturer’s instructions. The analyte concentration in the supernatant was measured in pg/mL, and the inhibition level was expressed as a fold change compared to the LPS (−) control group. To determine the IC50 value, the dose-response data were normalized to the LPS-stimulated-only group, and the percentage of inhibition was calculated using the following formula: % Inhibition=(Absorbance of LPS+ control−Absorbance of compound treatment with LPS)/(Absorbance of LPS+ control−Absorbance of LPS− control)×100
Furthermore, the % inhibition data were interpolated into linear equations to determine the IC50 values.
For orientation: ELISA stands for enzyme-linked immunosorbent assay.

Data set [1] relates to TNF-α, IL-6, IL-1β, and MCP-1. Put plainly: ELISA of pro-inflammatory markers overall (TNF-α, IL-6, IL-1β, MCP-1) in LPS-stimulated THP-1 cells. The conditions noted are these: Homo sapiens, read-out: Overall IC50 values for the evaluated pro-inflammatory markers. It is filed as cell-based. The procedure, abridged: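 PMA (0.5 μM)-differentiated THP-1 cells, rested overnight in 0.1% FBS medium, pretreated with compound 1 h, then LPS (10 ng/mL) for 18 h at 37 °C. Supernatant cytokines measured by human ELISA (pg/mL); % inhibition normalised to LPS+ and LPS− controls, IC50 by linear interpolation.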

Data set [2] can be described thus: Cell viability by CCK-8, THP-1 cells. It is filed as cell-based. The conditions noted are these: human, PMA-differentiated THP-1 cells; for CC50 at 18 h: concentration causing 50% cytotoxicity against THP-1 cells. The procedure, abridged: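 THP-1 cells seeded at 5 × 10^4 cells/well in 96-well plates were differentiated with 0.5 μM PMA for 24 h, washed with PBS, and held overnight at 37 °C in RPMI-1640 containing 0.1% FBS and 1% penicillin–streptomycin. After 1 h compound pretreatment and 18 h further incubation, 10% (v/v) CCK-8 was added for 1 h. Absorbance was read at 405 nm, and background-corrected viability was expressed relative to untreated control cells.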

Data set [3] is described as follows: Cell viability by CCK-8, HEK-Blue hTLR4 cells. The class given is cell-based. The conditions noted are these: human. The procedure, abridged: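 CCK-8 read-out. HEK-Blue hTLR4 cells (2 × 10^4/well) serum-starved 24 h, then in high-glucose D-MEM with 0.1% FBS pretreated ±20 µM limonoids for 1 h before 10 ng/mL LPS; CCK-8 (10% v/v) added after 18 h and incubated 1 h at 37 °C. RAW264.7 viability measured likewise with CCK-8.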

The mark [4] stands for this setting: LPS 10 ng/mL, read-out: Viability Cell (%) THP-1 LPS-Induced (10 ng/mL).
The mark [5] stands for this setting: without LPS, read-out: Viability Cell (%) THP-1 Without LPS.
Setting [6] is: Viability Cell (%) HEK-Blue hTLR4 LPS-Induced (10 ng/mL).
The mark [7] stands for this setting: Viability Cell (%) HEK-Blue hTLR4 Without LPS.

Structures are written as SMILES. Where two headings read alike, the source gives them in different places.

With `CC(=O)O[C@H]1[C@@H](O)[C@@]2(C)C3=CC[C@@H](c4ccoc4)[C@]3(C)CC[C@@H]2[C@@]2(C)C=CC(=O)C(C)(C)[C@H]12` [Compound 3, 6α-O-acetyl-7-deacetylnimocinol], in the data set with MCP-1, the “Effect on MCP-1 level” value was “significantly reduced”. Further, the results for the IC50 (in the data set on MCP-1; in data set [1]) were 2.11 µM and under 20 µM, respectively. Besides, in the data set with MCP-1, the “MCP-1 SI (selectivity index, CC50/IC50)” value is recorded as 9.61. Further, the viability at 18 h, 10 µM in data set [2] (setting [4]) and in data set [2] (setting [5]) was over 99.9% throughout. For the same compound, the CC50 (in general, the concentration that lowers cell viability or growth by half) at 18 h in data set [2] was 20.3 µM. The viability at 18 h, 20 µM in data set [3] (setting [6]) was 6.79 ± 6.22%; in data set [3] (setting [7]) it was 20.7 ± 3.08%.
Take `CC(=O)O[C@H]1[C@@H](OC(C)=O)[C@@]2(C)C3=CC[C@@H](c4ccoc4)[C@]3(C)CC[C@@H]2[C@@]2(C)C=CC(=O)C(C)(C)[C@H]12` [Compound 5, dysobinin]: the “Effect on MCP-1 level” value in the data set with MCP-1 was “significantly reduced”. Further, the figures for the IC50 (in the data set with MCP-1; in data set [1]) were 0.87 µM and under 20 µM, respectively. In addition, in the data set on MCP-1, the “MCP-1 SI (selectivity index, CC50/IC50)” value came to 16.76. The viability at 18 h, 10 µM in data set [2] (setting [4]) was 52 ± 6.51%; in data set [2] (setting [5]), 66.7 ± 6.02%. For the same compound, the CC50 at 18 h in data set [2] came to 14.6 µM. Further, the viability at 18 h, 20 µM in data set [3] (setting [6]) stood at 23.6 ± 2.61%; in data set [3] (setting [7]), 43.3 ± 6.02%.

The values are drawn from paper PMC10814725, “In Vitro Anti-Inflammatory Study of Limonoids Isolated from Chisocheton Plants” (Current Issues in Molecular Biology, 2024).
